Like-named read-outs stand apart in the source and are kept apart here.
Legend:
AhR = target: T1, AhR (Homo sapiens, UniProt P35869); test: AhR activation, pDRE3 luciferase transient transfection in LNCaP cells; type: cell-based
T1 construct: LNCaP cells were transfected with pDRE3, treated with various compounds and luciferase activity was determined; endogenous in cells; host or cells: LNCaP
T1 sequence (P35869 11-848): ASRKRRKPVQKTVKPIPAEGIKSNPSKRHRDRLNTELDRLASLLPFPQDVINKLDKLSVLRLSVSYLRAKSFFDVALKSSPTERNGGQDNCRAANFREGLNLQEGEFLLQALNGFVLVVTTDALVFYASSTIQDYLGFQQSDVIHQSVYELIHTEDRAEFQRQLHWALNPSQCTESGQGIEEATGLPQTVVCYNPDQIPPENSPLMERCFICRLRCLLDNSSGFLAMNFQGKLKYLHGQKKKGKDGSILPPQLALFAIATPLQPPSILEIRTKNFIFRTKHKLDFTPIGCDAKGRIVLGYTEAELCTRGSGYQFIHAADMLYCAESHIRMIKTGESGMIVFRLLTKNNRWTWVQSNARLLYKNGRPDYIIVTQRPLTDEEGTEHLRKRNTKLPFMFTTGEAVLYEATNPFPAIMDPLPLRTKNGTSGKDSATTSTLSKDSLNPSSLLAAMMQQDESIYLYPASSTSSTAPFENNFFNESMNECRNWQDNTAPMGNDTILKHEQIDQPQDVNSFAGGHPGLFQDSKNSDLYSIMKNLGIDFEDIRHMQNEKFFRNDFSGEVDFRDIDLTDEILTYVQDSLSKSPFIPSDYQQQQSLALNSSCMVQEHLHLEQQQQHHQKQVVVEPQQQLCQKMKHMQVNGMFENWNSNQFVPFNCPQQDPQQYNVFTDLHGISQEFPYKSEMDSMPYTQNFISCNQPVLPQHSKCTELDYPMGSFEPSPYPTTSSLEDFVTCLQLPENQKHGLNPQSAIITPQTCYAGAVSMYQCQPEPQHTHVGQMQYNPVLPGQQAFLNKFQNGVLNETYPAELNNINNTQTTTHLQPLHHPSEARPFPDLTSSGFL
Experimental: After 24 h, cells were transfected using Lipofectamine and Plus reagents (Invitrogen) according to manufacturer's instructions. LNCaP and ZR-75 cells were transfected with 500 ng/well of either reporter plasmid, and 250 ng/well of pcDNA3.1-β-gal (Invitrogen) as the internal control. In addition, ZR-75 cells were transfected with 500 ng hAR. Twenty-four hours after treatment, cells were harvested by scraping with 200 μL/well of reporter lysis buffer. Lysates were centrifuged at 40,000 g and luciferase and β-galactosidase activity was assayed with 30 μL of the supernatant extract per sample using a Lumicount luminometer (PerkinElmer, Boston, Mass.). Luciferase activity was normalized to β-galactosidase activity for each transfection well.
LNCaP cells were transfected with pDRE3, treated with various compounds and luciferase activity was determined as described in the above Examples.

AR = AR protein levels in LNCaP cells by Western blot; type: cell-based, human; conditions: 6 h; for AR protein levels, compound alone: DHT 10 nM, E2 10 nM, TCDD 10 nM, 6-MCDF 2 μM, HPTE 10 μM
Experimental: Cells were harvested 6 h after treatment using 200 μL/22-mm well of ice cold lysis buffer (50 mM HEPES, pH 7.5, 500 mM NaCl, 10% (v/v) glycerol, 1% (v/v) Triton-X 100, 1.5 mM MgCl2, 1 mM EGTA) (McDougal et al., 2001). Lysates were centrifuged at 40,000 g, and supernatant was collected as extract. Whole cell extracts (50 μg/sample) were separated by electrophoresis on a tiered 7.5% (top)/12.5% (bottom) SDS-polyacrylamide gel and transferred to PVDF membrane (Bio-Rad, Richmond, Calif.). The membrane was blocked with 5% milk (m/v) in tris-buffered saline 0.05% Tween (TBST). Membranes were incubated with primary antibodies for AR (sc-7305), cyclin D1 (sc-718), or p27 (sc-528) (each from Santa Cruz Biotechnology, Santa Cruz, Calif.) at 1:1000 in 5% milk/TBST for 3 h. Membranes were washed twice in TBST. Horseradish peroxidase (HRP)-conjugated secondary antibodies were applied at 1:5000 in 5% milk/TBST for 1 h. After two TBST washes, PVDF-bounded antibodies were detected using a chemiluminescence kit (Western Lightning, PerkinElmer), ImageTek-H film (American X-Ray and Medical Supply, Rancho Cordova, Calif.) and an autoprocessor (Hope Macro-Med, Warminster, Pa.). Quantitation of the Western blot was performed using a Sharp JX-330 scanner (Sharp, Mahwah, N.J.) and Zero-D software (Scanalytics, Billerica, Mass.).

[1] = test system: ethoxyresorufin O-deethylase (EROD) activity in 22Rv1 cells; test: Induction of EROD activity in 22Rv1 cells; type: cell-based; conditions: 24-hr treatment
Experimental: An androgen responsive prostate cancer cell line 22Rv1 and an androgen nonresponsive prostate cancer cell line PC3 were treated with TCDD and ethoxyresorufin O-deethylase (EROD) activity was measured.

[2] = test system: LNCaP prostate cancer cells; type: cell-based, human; conditions: 48 h
Experimental: Cells were analyzed on a FACS Calibur (Becton Dickinson, San Jose, Calif.) flow cytometer, equipped with a 15 mW air-cooled argon laser, using CellQuest (Becton Dickinson) acquisition software. Propidium iodide (PI) fluorescence was collected through a 585/42-nm bandpass filter, and list mode data were acquired on a minimum of 12,000 single cells defined by a dot plot of PI-width versus PI-area. Data analysis was performed in ModFit LT (Verity Software House, Topsham, Me.) using PI-width versus PI-area to exclude cell aggregates.
The effects of TCDD on cell cycle progression was also determined in LNCaP cells treated with 1.0, 10 and 100 nM TCDD for 48 h followed by FACS analysis (Table 1).

SMILES: Cc1cc(Cl)cc2c1oc1cc(Cl)cc(Cl)c12 [6-MCDF, 6-methyl-1,3,8-trichlorodibenzofuran]
- luciferase activity induction (AhR; pDRE3, 2 μM): > 7 fold
- AR levels in combination with DHT compared to DHT alone (AR): significant decrease
- AR protein levels, compound alone (AR): did not significantly affect

SMILES: Clc1cc2c(cc1Cl)Oc1cc(Cl)c(Cl)cc1O2 [TCDD, 2,3,7,8-tetrachloro-p-dioxin]
- luciferase activity induction compared to solvent control (DMSO) (AhR; pDRE3, 10 nM): > 9 fold
- EROD activity induction [1]: induced EROD activity
- AR levels in combination with DHT compared to DHT alone (AR): significant decrease
- AR levels in combination with E2 compared to E2 alone (AR): decreased
- AR protein levels, compound alone (AR): did not significantly affect
- cells in S phase ([2]; 1.0, 10 and 100 nM): decrease
- percentage of cells in G0/G1 ([2]; 1.0, 10 and 100 nM): small but significant increase
- Percent Distribution G0/G1 ([2]; 10^−7 M): 77.500 ± 0.451%
- Percent Distribution G2/M ([2]; 10^−7 M): 8.943 ± 0.471%
- Percent Distribution S ([2]; 10^−7 M): 13.567 ± 0.176%
- Percent Distribution G0/G1 ([2]; 10^−8 M): 75.367 ± 0.636%
- Percent Distribution G2/M ([2]; 10^−8 M): 10.300 ± 0.153%
- Percent Distribution S ([2]; 10^−8 M): 14.3 ± 0.666%
- Percent Distribution G0/G1 ([2]; 10^−9 M): 74.300 ± 0.751%
- Percent Distribution G2/M ([2]; 10^−9 M): 10.633 ± 0.376%
- Percent Distribution S ([2]; 10^−9 M): 14.7 ± 0.520%

— patent US20050143450A1, “Alkyl PCDF as a treatment for prostate cancer” (priority 2002, published 2005)
